Measured values reported in patent US20210139857A1, “Intestinal organoid co-culture systems and methods for treating or preventing a disease or disorder associated with immune response-mediated tissue injury” (NEW YORK UNIVERSITY, priority 2019, published 2021).

Legend:
Atg16L1^ΔIEC mice = assay: preclinical GVHD model: allo-HCT after chemotherapy conditioning, GSK547 or control chow; format: in vivo, mouse; settings: GSK547 chow started 10 days before allo-HCT, P<0.05
Description: FIG. 1F depicts the survival of chemotherapy-pretreated Atg16L1^f/f (f/f) and Atg16L1^ΔIEC (ΔIEC) mice which received GSK547 or control chow and were transplanted with 5×10^6 T cell-depleted BM cells with 4×10^6 splenic T cells from donor LP/J mice. n=8 (f/f, control), 8 (ΔIEC, control), 8 (f/f, GSK547), and 8 (ΔIEC, GSK547). GSK547 was started 10 days before allo-HCT, and continued until the end of the study. FIG. 1G depicts the clinical disease scores evaluated every 7 days after allo-HCT. Data points in FIG. 1B, FIG. 1D, and FIG. 1F represent individual mice, and data points in FIG. 1C, FIG. 1E, and FIG. 1G are mean of clinical scores of viable mice. Bars represent means±SEM, and survival data in FIG. 1B, FIG. 1D, and FIG. 1F are combined results of 2 experiments performed independently. FIG. 1B, FIG. 1D, and FIG. 1F were analyzed with the Mantel-Cox log rank test.
In brief, female B6 background mice were intraperitoneally injected with busulfan (20 mg/kg/day) for 5 days, followed by cyclophosphamide (100 mg/kg/day) for 3 days. Days −2 and −1 were rest days. […] Recipient mice were monitored daily for survival and weekly quantified for clinical GVHD for 5 clinical parameters (weight loss, hunched posture, activity, fur ruffling, and skin lesions) on a scale from 0 to 2. […]

[1] = test system: ATG16L1^T300A homozygous human organoids; assay: human organoid viability assay, TNFα-induced death; format: cell-based; settings: 50 ng/ml TNFα, 48 hours; 100 nM Ruxolitinib, 1 μM GSK547, 20 μM Necrostatin-1s, 2 μM NSA; P<0.0001
Experimental: N=14 (Nonrisk) and 6 (T300A/T300A). Statistical significance was validated with Fisher's exact test. FIG. 13B depicts a combined organoid viability in (A). N=14 (Non-risk) and 6 (T300A/T300A). FIG. 13C and FIG. 13D depict representative images (FIG. 13C) and viability (FIG. 13D) of human small intestinal organoids stimulated with or without 50 ng/ml TNFα, 100 nM Ruxolitinib, 1 μM GSK547, 20 μM Necrostatin-1s (Nec-1s), and 2 μM necrosulfonamide (NSA) for 48 hours. Scale bars represent 400 μm. Data points in FIG. 13B represent an average viability of individual organoids in FIG. 12, and data points in FIG. […] are mean of technical replicates. At least 2 independent experiments were performed. ***p<0.001, ****p<0.0001.
Mouse small intestinal and colonic crypts were isolated and cultured. Crypts of proximal small intestine were counted and embedded in Matrigel at 10,000 crypts/ml and cultured in DMEM/F-12 in the presence of 100 IU penicillin and 100 μg/ml streptomycin (Corning), 125 μg/ml gentamicin (Gibco), 2 mM l-glutamine (Corning), 20 ng/ml mEGF (PeproTech), 100 ng/ml mNoggin (R&D Systems), and 500 ng/ml mR-Spondin 1 (R&D Systems), hereafter referred as ENR medium. Crypts of colon were counted and embedded in Matrigel and cultured in the ENR medium plus 50 ng/ml Wnt-3a, 1×B-27, and N-2 supplement (Thermo Fisher Scientific). Surface area of organoids was quantified with Image J. For organoid viability assays, crypts were embedded in 10 μl of Matrigel at 5,000 crypts/ml and cultured in 96-well culture plate in triplicate with or without 20 ng/ml mTNFα (PeproTech) and 100 nM Ruxolitinib (Selleckchem). Percent viable organoids was determined by daily quantification of the number of intact organoids. Opaque organoids with condensed structures or those that have lost adherence were excluded. Dead organoids were marked by staining with 100 μg/ml propidium iodide (SIGMA-ALDRICH). Human intestinal organoids were cultured (Neil et al., 2019, Nat Microbiol 4, 1737-1749). […]

Row | Structure (SMILES) | survival after allo-HCT (Atg16L1^ΔIEC mice; BM + T cells from LP/J donors) | clinical GVHD score after allo-HCT (Atg16L1^ΔIEC mice; scored every 7 days) | viability of human organoids, TNFα-induced death [1]
1 | N#Cc1cc(N2CCC(C(=O)N3N=CC[C@H]3c3cc(F)cc(F)c3)CC2)ncn1 [GSK547] | significantly better survival | significantly better | significantly protected
2 | COc1nccnc1NS(=O)(=O)c1ccc(NC(=O)/C=C/c2ccc([N+](=O)[O-])s2)cc1 [Necrosulfonamide] |  |  | significantly protected
3 | CN1C(=O)NC(Cc2c[nH]c3c(Cl)cccc23)C1=O (centres unmarked) [Necrostatin-1s] |  |  | significantly protected
